Legend:
Assay type in all cases: cell-based
Serratia marcescens = experiment: MIC against Gram-negative bacteria: Serratia marcescens
In short: (§1)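 Inocula prepared by growing LB cultures at 37° C to 0.5 McFarland, centrifuging at 4000×g, and resuspending in fresh medium. Final density 5×10^5 CFU/mL per well with two-fold dilutions of purified EGF domain protein; shaking incubation at 37° C.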

E. coli BL21 = experiment: MIC against Gram-negative bacteria: E. coli BL21
In short: as §1

Proteus vulgaris = experiment: MIC against Gram-negative bacteria: Proteus vulgaris
In short: as §1

Proteus mirabilis = experiment: MIC against Gram-negative bacteria: Proteus mirabilis
In short: as §1

Enterobacter cloacae = experiment: MIC against Gram-negative bacteria: Enterobacter cloacae
In short: as §1

E. coli DH5α = experiment: Antibacterial activity: MIC and growth curve against E. coli DH5α in 96-well plate; details: minimal inhibitory concentration against E. coli DH5α; 96-well plate, 5×10^5 CFU/mL, 37° C., judged after 8 h
In short: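 Log-phase DH5α (OD600 about 0.5, 37° C, 185 rpm in LB) was pelleted, resuspended in fresh LB and seeded at 5×10^5 CFU/mL with recombinant protein at 50, 25 and 12.5 μg/mL (two-fold series), in triplicate. Plates were shaken at 175 rpm, 37° C, and OD600 was read every 30 min. MIC was the lowest concentration with no growth.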

Moraxella catarrhalis = experiment: MIC against Gram-negative bacteria: Moraxella catarrhalis
In short: as §1

Citrobacter diversus = experiment: MIC against Gram-negative bacteria: Citrobacter diversus
In short: as §1

Klebsiella pneumonia = experiment: MIC against Gram-negative bacteria: Klebsiella pneumonia
In short: as §1

Aeromonas hydrophila = experiment: MIC against Gram-negative bacteria: Aeromonas hydrophila
In short: as §1

Pseudomonas aeruginosa = experiment: MIC against Gram-negative bacteria: Pseudomonas aeruginosa
In short: as §1

[1] = S. marcescens, 10 h cultivation at 37° C., 5×10^5 CFU/mL
[2] = E. coli BL21, 10 h cultivation at 37° C., 5×10^5 CFU/mL
[3] = P. vulgaris, 10 h cultivation at 37° C., 5×10^5 CFU/mL
[4] = P. mirabilis, 10 h cultivation at 37° C., 5×10^5 CFU/mL
[5] = E. cloacae, 10 h cultivation at 37° C., 5×10^5 CFU/mL
[6] = M. catarrhalis, 10 h cultivation at 37° C., 5×10^5 CFU/mL
[7] = C. diversus, 10 h cultivation at 37° C., 5×10^5 CFU/mL
[8] = K. pneumonia, 10 h cultivation at 37° C., 5×10^5 CFU/mL
[9] = A. hydrophila, 10 h cultivation at 37° C., 5×10^5 CFU/mL
[10] = P. aeruginosa, 10 h cultivation at 37° C., 5×10^5 CFU/mL
[11] = 96-well plate, 5×10^5 CFU/mL, 37° C., 10 h
[12] = 10 h cultivation at 37° C., 5×10^5 CFU/mL, two-fold serial dilution

PRT844 (CRCNRHSECAGVGARDHCLLCRNHTKGSHCEQCLPLFVGSAVGGGTCRP; listed as Homo sapiens)
25 µg/mL: MIC (μg/mL) S. marcescens (Serratia marcescens; [1]) | MIC (μg/mL) E. coli BL21 (E. coli BL21; [2]) | MIC (μg/mL) M. catarrhalis (Moraxella catarrhalis; [6])
12.5 µg/mL: MIC (μg/mL) P. vulgaris (Proteus vulgaris; [3]) | MIC (μg/mL) P. mirabilis (Proteus mirabilis; [4]) | MIC (E. coli DH5α) | MIC (μg/mL) K. pneumonia (Klebsiella pneumonia; [8]) | MIC (μg/mL) A. hydrophila (Aeromonas hydrophila; [9])
50 µg/mL: MIC (μg/mL) E. cloacae (Enterobacter cloacae; [5]) | MIC (μg/mL) C. diversus (Citrobacter diversus; [7]) | MIC (μg/mL) P. aeruginosa (Pseudomonas aeruginosa; [10])

PRT486 (EANPCKFQACNEFSECLVNPWSGEAKCRCFPGYLSVEERPCQ; listed as Homo sapiens)
12.5 µg/mL: MIC against P. mirabilis (Proteus mirabilis; [11]) | MIC against E. cloacae (Enterobacter cloacae; [11]) | MIC (E. coli DH5α) | MIC against C. diversus (Citrobacter diversus; [11]) | MIC against P. aeruginosa (Pseudomonas aeruginosa; [11])
25 µg/mL: MIC against S. marcescens (Serratia marcescens; [11])
50 µg/mL: MIC against E. coli BL21 (E. coli BL21; [11]) | MIC against P. vulgaris (Proteus vulgaris; [11]) | MIC against M. catarrhalis (Moraxella catarrhalis; [11]) | MIC against K. pneumonia (Klebsiella pneumonia; [11]) | MIC against A. hydrophila (Aeromonas hydrophila; [11])

PRT616 (CDCNGKSRQCIFDRELHRQTGNGFRCLNCNDNTDGIHCEKCKNGFYRHRERDRCLP; listed as Homo sapiens)
50 µg/mL: MIC K. pneumonia (Klebsiella pneumonia; [11])
25 µg/mL: MIC P. vulgaris (Proteus vulgaris; [11]) | MIC (E. coli DH5α) | MIC M. catarrhalis (Moraxella catarrhalis; [11]) | MIC A. hydrophila (Aeromonas hydrophila; [11]) | MIC P. aeruginosa (Pseudomonas aeruginosa; [11])
12.5 µg/mL: MIC S. marcescens (Serratia marcescens; [11]) | MIC E. coli BL21 (E. coli BL21; [11]) | MIC P. mirabilis (Proteus mirabilis; [11]) | MIC E. cloacae (Enterobacter cloacae; [11]) | MIC C. diversus (Citrobacter diversus; [11])

PRT1142 (DVNKCKISPCLDEENCVYRTDGYNCLCAPGYTGINCE; listed as Homo sapiens)
25 µg/mL: MIC P. vulgaris (Proteus vulgaris; [12]) | MIC E. cloacae (Enterobacter cloacae; [12]) | MIC (E. coli DH5α) | MIC M. catarrhalis (Moraxella catarrhalis; [12]) | MIC A. hydrophila (Aeromonas hydrophila; [12]) | MIC P. aeruginosa (Pseudomonas aeruginosa; [12])
50 µg/mL: MIC S. marcescens (Serratia marcescens; [12]) | MIC E. coli BL21 (E. coli BL21; [12]) | MIC C. diversus (Citrobacter diversus; [12])
12.5 µg/mL: MIC P. mirabilis (Proteus mirabilis; [12]) | MIC K. pneumonia (Klebsiella pneumonia; [12])

PRT748 (YTASCQPWSCSGHGECVEIINNYTCNCDVGYYGPQCQ; listed as Homo sapiens)
50 µg/mL: MIC (μg/mL) P. mirabilis (Proteus mirabilis; [4]) | MIC (μg/mL) E. cloacae (Enterobacter cloacae; [5]) | MIC (E. coli DH5α) | MIC (μg/mL) C. diversus (Citrobacter diversus; [7])
12.5 µg/mL: MIC (μg/mL) P. vulgaris (Proteus vulgaris; [3]) | MIC (μg/mL) M. catarrhalis (Moraxella catarrhalis; [6]) | MIC (μg/mL) A. hydrophila (Aeromonas hydrophila; [9]) | MIC (μg/mL) P. aeruginosa (Pseudomonas aeruginosa; [10])
25 µg/mL: MIC (μg/mL) S. marcescens (Serratia marcescens; [1]) | MIC (μg/mL) E. coli BL21 (E. coli BL21; [2]) | MIC (μg/mL) K. pneumonia (Klebsiella pneumonia; [8])

PRT1028 (DENECATGFHRCGPNSVCINLPGSYRCECRSGYEFADDRHTCI; listed as Homo sapiens)
25 µg/mL: MIC (Proteus vulgaris; P. vulgaris, 10 h cultivation at 37° C.) | MIC (Enterobacter cloacae; E. cloacae, 10 h cultivation at 37° C.) | MIC (Moraxella catarrhalis; M. catarrhalis, 10 h cultivation at 37° C.) | MIC (Aeromonas hydrophila; A. hydrophila, 10 h cultivation at 37° C.) | MIC (Pseudomonas aeruginosa; P. aeruginosa, 10 h cultivation at 37° C.)
50 µg/mL: MIC (Serratia marcescens; S. marcescens, 10 h cultivation at 37° C.) | MIC (E. coli BL21; E. coli BL21, 10 h cultivation at 37° C.) | MIC (Proteus mirabilis; P. mirabilis, 10 h cultivation at 37° C.) | MIC (Klebsiella pneumonia; K. pneumonia, 10 h cultivation at 37° C.)
12.5 µg/mL: MIC (E. coli DH5α) | MIC (Citrobacter diversus; C. diversus, 10 h cultivation at 37° C.)
